The structures appear in SMILES notation. Starred links: 1 amine or outer side, 2 acyl side, 3 side chain; linkers in the order of their positions; H or OH if unused. Positions of bridges follow the written chain, without caps; N, C: chain ends. Non-standard residues stand in square brackets, D forms with d. Residues, ends and D or L forms follow the SMILES beside them. ξ: configuration not given here. *: point of attachment. Benzoyl(4-OC10H21) = CCCCCCCCCCOc1ccc(C(=O)*)cc1; ξAbu(βξ-NH2) = CC(N[*:3])C(N[*:1])C(=O)[*:2]; Phac(3-amino) = O=C(Cc1cccc(N[*:1])c1)[*:2]; Pentadecanoyl = CCCCCCCCCCCCCCC(=O)*; Bta = N[C@@H](Cc1csc2ccccc12)C(=O)O; Stearoyl = CCCCCCCCCCCCCCCCCC(=O)*; ξAsp(βξ-Me) = CC(C(=O)O)C(N)C(=O)O; Palmitoyl = CCCCCCCCCCCCCCCC(=O)*; X2 = O=C(CCc1ccc(N[*:1])cc1)[*:2]; X1 = O=C(Cc1ccc(N[*:1])cc1)[*:2]; Myristoyl = CCCCCCCCCCCCCC(=O)*; X13 = O=C(CCCCCCCCCCOc1ccccc1)*; ξAbu(3ξ-NH2) = CC(N)C(N)C(=O)O; Lauroyl = CCCCCCCCCCCC(=O)*; Decanoyl = CCCCCCCCCC(=O)*; Octanoyl = CCCCCCCC(=O)*; Pip = O=C(O)[CH]1CCCCN1; ξD = NC(CC(=O)O)C(=O)O; ξPip = O=C(O)C1CCCCN1; ξV = CC(C)C(N)C(=O)O; ξP = O=C(O)C1CCCN1; OtBu = CC(C)(C)O*

The first assay deals with Staphylococcus aureus (MSSA). The following applies: 24 h. The essentials:
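Broth microdilution MIC per NCCLS M7-A6 with doubling serial dilutions, in cation-adjusted Mueller-Hinton broth supplemented with 0.625 mM calcium.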
`CCCCCCCC(=O)Nc1ccc(CC(=O)NC(CC(=O)O)C(=O)NC2C(=O)N3CCCCC3C(=O)NC(C(C)C(=O)O)C(=O)NC(CC(=O)O)C(=O)NCC(=O)NC(CC(=O)O)C(=O)NCC(=O)NC(C(C)N)C(=O)NC(C(C)C)C(=O)N3CCCC3C(=O)NC2C)cc1` (stereo not drawn) [Compound 104, C8-(p-Apa)-Amphomycin] (Octanoyl-[X1]D[ξAbu(βξ-NH2)][Pip][ξAsp(βξ-Me)]DGDG[ξAbu(3ξ-NH2)]VP; lactam 3-C; configuration not given here): the MIC came out at 2 mg/L.

Take `CCCCCCCCCCCCCC(=O)NCC(=O)NC(CC(=O)O)C(=O)NC1C(=O)N2CCCCC2C(=O)NC(C(C)C(=O)O)C(=O)NC(CC(=O)O)C(=O)NCC(=O)NC(CC(=O)O)C(=O)NCC(=O)NC(C(C)N)C(=O)NC(C(C)C)C(=O)N2CCCC2C(=O)NC1C` (stereo not drawn) [Compound 105, C14-Gly-Amphomycin] (Myristoyl-GD[ξAbu(βξ-NH2)][Pip][ξAsp(βξ-Me)]DGDG[ξAbu(3ξ-NH2)]VP; lactam 3-C; configuration not given here): the MIC stood at 0.5 mg/L.

`CCCCCCCCCCCCCCCC(=O)NCC(=O)NC(CC(=O)O)C(=O)NC1C(=O)N2CCCCC2C(=O)NC(C(C)C(=O)O)C(=O)NC(CC(=O)O)C(=O)NCC(=O)NC(CC(=O)O)C(=O)NCC(=O)NC(C(C)N)C(=O)NC(C(C)C)C(=O)N2CCCC2C(=O)NC1C` (stereo not drawn) [Compound 106, C16-Gly-Amphomycin] (Palmitoyl-GD[ξAbu(βξ-NH2)][Pip][ξAsp(βξ-Me)]DGDG[ξAbu(3ξ-NH2)]VP; lactam 3-C; configuration not given here): the MIC turned out to be 0.5 mg/L.

As for `CCCCCCCCCCCCCCCCCC(=O)NCC(=O)NC(CC(=O)O)C(=O)NC1C(=O)N2CCCCC2C(=O)NC(C(C)C(=O)O)C(=O)NC(CC(=O)O)C(=O)NCC(=O)NC(CC(=O)O)C(=O)NCC(=O)NC(C(C)N)C(=O)NC(C(C)C)C(=O)N2CCCC2C(=O)NC1C` (stereo not drawn) [Compound 107, C18-Gly-Amphomycin] (Stearoyl-GD[ξAbu(βξ-NH2)][Pip][ξAsp(βξ-Me)]DGDG[ξAbu(3ξ-NH2)]VP; lactam 3-C; configuration not given here), the MIC is 2 mg/L.

`CCCCCCCCCCOc1ccc(C(=O)NCC(=O)NC(CC(=O)O)C(=O)NC2C(=O)N3CCCCC3C(=O)NC(C(C)C(=O)O)C(=O)NC(CC(=O)O)C(=O)NCC(=O)NC(CC(=O)O)C(=O)NCC(=O)NC(C(C)N)C(=O)NC(C(C)C)C(=O)N3CCCC3C(=O)NC2C)cc1` (stereo not drawn) [Compound 110, CH3—(CH2)9—O-p-Ph-C(═O)-Gly-Amphomycin] ({Benzoyl(4-OC10H21)}-GD[ξAbu(βξ-NH2)][Pip][ξAsp(βξ-Me)]DGDG[ξAbu(3ξ-NH2)]VP; lactam 3-C; configuration not given here): the MIC worked out at 0.5 mg/L.

`CCCCCCCCCCCC(=O)Nc1cccc(CC(=O)NC(CC(=O)O)C(=O)NC2C(=O)N3CCCCC3C(=O)NC(C(C)C(=O)O)C(=O)NC(CC(=O)O)C(=O)NCC(=O)NC(CC(=O)O)C(=O)NCC(=O)NC(C(C)N)C(=O)NC(C(C)C)C(=O)N3CCCC3C(=O)NC2C)c1` (stereo not drawn) [Compound 111, C12-(M-Apa)-Amphomycin] (Lauroyl-[Phac(3-amino)]D[ξAbu(βξ-NH2)][Pip][ξAsp(βξ-Me)]DGDG[ξAbu(3ξ-NH2)]VP; lactam 3-C; configuration not given here): the MIC fell in the range of 0.5 to 1 mg/L.

On to `CCCCCCCCCCCCCCC(=O)N[C@@H](CC(=O)OC(C)(C)C)C(=O)NC(CC(=O)O)C(=O)NC1C(=O)N2CCCCC2C(=O)NC(C(C)C(=O)O)C(=O)NC(CC(=O)O)C(=O)NCC(=O)NC(CC(=O)O)C(=O)NCC(=O)NC(C(C)N)C(=O)NC(C(C)C)C(=O)N2CCCC2C(=O)NC1C` (stereo partly drawn) [Compound 112, C15-[Asp-(OtBu)]-Amphomycin] (Pentadecanoyl-D(OtBu)[ξD][ξAbu(βξ-NH2)][ξPip][ξAsp(βξ-Me)][ξD]G[ξD]G[ξAbu(3ξ-NH2)][ξV][ξP]; lactam 3-C), for which the MIC worked out at 0.5 mg/L.

With `CCCCCCCCCC(=O)Nc1cccc(CC(=O)NC(CC(=O)O)C(=O)NC2C(=O)N3CCCCC3C(=O)NC(C(C)C(=O)O)C(=O)NC(CC(=O)O)C(=O)NCC(=O)NC(CC(=O)O)C(=O)NCC(=O)NC(C(C)N)C(=O)NC(C(C)C)C(=O)N3CCCC3C(=O)NC2C)c1` (stereo not drawn) [Compound 113, C10-(M-Apa)-Amphomycin] (Decanoyl-[Phac(3-amino)]D[ξAbu(βξ-NH2)][Pip][ξAsp(βξ-Me)]DGDG[ξAbu(3ξ-NH2)]VP; lactam 3-C; configuration not given here), the MIC was 16 mg/L.

Turning to `CCCCCCCCCCCCCCC(=O)N[C@H](C(=O)NC(CC(=O)O)C(=O)NC1C(=O)N2CCCCC2C(=O)NC(C(C)C(=O)O)C(=O)NC(CC(=O)O)C(=O)NCC(=O)NC(CC(=O)O)C(=O)NCC(=O)NC(C(C)N)C(=O)NC(C(C)C)C(=O)N2CCCC2C(=O)NC1C)c1ccccc1` (stereo partly shown) [Compound 115, C15-Phg-Amphomycin], the MIC came out at 2 mg/L.

For the compound `CCCCCCCCCCCCCCC(=O)N[C@H](Cc1ccccc1)C(=O)NC(CC(=O)O)C(=O)NC1C(=O)N2CCCCC2C(=O)NC(C(C)C(=O)O)C(=O)NC(CC(=O)O)C(=O)NCC(=O)NC(CC(=O)O)C(=O)NCC(=O)NC(C(C)N)C(=O)NC(C(C)C)C(=O)N2CCCC2C(=O)NC1C` (stereo partly drawn) [Compound 116, C15-(D-Phe)-Amphomycin] (Pentadecanoyl-[dF][ξD][ξAbu(βξ-NH2)][ξPip][ξAsp(βξ-Me)][ξD]G[ξD]G[ξAbu(3ξ-NH2)][ξV][ξP]; lactam 3-C), the MIC was 1 mg/L.

Turning to `CC(C)C1NC(=O)C(C(C)N)NC(=O)CNC(=O)C(CC(=O)O)NC(=O)CNC(=O)C(CC(=O)O)NC(=O)C(C(C)C(=O)O)NC(=O)C2CCCCN2C(=O)C(NC(=O)C(CC(=O)O)NC(=O)CNC(=O)CCCCCCCCCCOc2ccccc2)C(C)NC(=O)C2CCCN2C1=O` (stereo not drawn) [Compound 117, Ph-O—(CH2)11-Gly-Amphomycin] (X13-GD[ξAbu(βξ-NH2)][Pip][ξAsp(βξ-Me)]DGDG[ξAbu(3ξ-NH2)]VP; lactam 3-C; configuration not given here; N-terminus assumed), the MIC turned out to be 8 mg/L.

Regarding `CCCCCCCCCC(=O)N[C@@H](Cc1csc2ccccc12)C(=O)NC(CC(=O)O)C(=O)NC1C(=O)N2CCCCC2C(=O)NC(C(C)C(=O)O)C(=O)NC(CC(=O)O)C(=O)NCC(=O)NC(CC(=O)O)C(=O)NCC(=O)NC(C(C)N)C(=O)NC(C(C)C)C(=O)N2CCCC2C(=O)NC1C` (stereo partly drawn) [Compound 118, C10-(L-BBTA)-Amphomycin] (Decanoyl-[Bta][ξD][ξAbu(βξ-NH2)][ξPip][ξAsp(βξ-Me)][ξD]G[ξD]G[ξAbu(3ξ-NH2)][ξV][ξP]; lactam 3-C), the MIC was 2 mg/L.

Still in this assay, the particulars now being: S. aureus (MSSA), CAMHB supplemented with 0.625 mM calcium, 24 hours at about 37° C.; a range = compound tested multiple times.
For the compound `CCCCCCCCCCCC(=O)Nc1ccc(CCC(=O)Nc2ccc(CCC(=O)NC(CC(=O)O)C(=O)NC3C(=O)N4CCCCC4C(=O)NC(C(C)C(=O)O)C(=O)NC(CC(=O)O)C(=O)NCC(=O)NC(CC(=O)O)C(=O)NCC(=O)NC(C(C)N)C(=O)NC(C(C)C)C(=O)N4CCCC4C(=O)NC3C)cc2)cc1` (stereo not drawn) [Compound 109, C12-(p-Aminophenylpropanoyl)2-Amphomycin] (Lauroyl-[X2][X2]D[ξAbu(βξ-NH2)][Pip][ξAsp(βξ-Me)]DGDG[ξAbu(3ξ-NH2)]VP; lactam 4-C; configuration not given here), the MIC came to 2 mg/L.

Usually MIC stands for the smallest concentration in the dilution series that meets the test's criterion for growth inhibition.

The values above are taken from patent US7868135B2, “Compositions of lipopeptide antibiotic derivatives and methods of use thereof” (priority 2003, dated 2011).
